Experimental data published in patent publication US20260248923A1, “BI-SPECIFIC ADAPTERS AND THEIR USE WITH UNIVERSAL CAR-T CELLS IN THE TREATMENT OF TUMORS AND THE INHIBITION OF CANCER-ASSOCIATED FIBROBLASTS” (priority 2023, published 2026).
Read-outs that look alike come from different tables or passages of the source. Values belong to the molecule of their own block, whether it stands above or below them.

Columns and labels:
[1] = system: MDA-MB-231-PSMA tumor cells; conditions: mouse, in vivo
Description: (§3) The mice were euthanized at the indicated time points after injection. Tumors were dissected and dissociated into single cells. Fluorescent intensity of FITC indicating the total retention of the adapters in the tumor cells were analyzed by flow cytometry. To analyze the surface retention of the adapters on the tumor cell surface, the dissociated tumor cells were stained with APC-anti-FITC antibody, and the fluorescent intensity of APC was analyzed by flow cytometry.

[2] = system: MDA-PSMA tumors (high PSMA level); experiment: MDA-PSMA tumor in NSG mice with anti-FITC CAR T-cells; conditions: for eradication of MDA-PSMA tumors: 10 million anti-FITC CAR T-cells
Description: MDA-PSMA cells (high PSMA level; 5 million cells) were implanted into each NSG mouse by subcutaneous injection. […] The tumor volume and body weight were monitored regularly. Tumor volume was calculated using the formula: (length*width^2)/2. […] MDA-PSMA cells (5 million) were implanted into each NSG mouse by subcutaneous injection. […] The volumes of the tumors and the body weights of the mice were monitored regularly. Tumor volume was calculated using the formula: (length*width^2)/2.

[3] = system: 22Rv1 tumor; experiment: 22Rv1 tumor in NSG mice with anti-FITC CAR T cells; assay type: in vivo; conditions: 10 million anti-FITC CAR T cells
[4] = target: T1, PSMA (Homo sapiens, UniProt Q04609); experiment: Binding to MDA-PSMA cells by flow cytometry (MFI of FITC)
T1 construct: expressed in transfected cells; host or cells: MDA-MB-231 (MDA-PSMA / PSMA+ MDA-MB-231)
Description: (§1) MDA-PSMA cells (0.2 million) were incubated with 2-fold serial diluted adapters starting from 500 nM in complete RPMI medium (RPMI+10% FBS) for 1 hour at room temperature. Cells were washed twice with 2% FBS in PBS and resuspended in the same buffer. Fluorescent intensity of fluorescein isothiocyanate (FITC) was analyzed by flow cytometer.
MDA-PSMA cells (0.2 million) were incubated with 1 μM of DUPA-FITC conjugates with different PEG linkers in complete RPMI medium (RPMI+10% FBS) for 1 hour at room temperature. Free compounds were washed away, and fluorescent intensity of FITC was analyzed by flow cytometer. To analyze the surface exposure of FITC moiety, the stained cells were incubated with APC-anti-FITC on ice for 30 minutes.
as §1, with “FITC” for “fluorescein isothiocyanate (FITC)”

[5] = system: 22Rv1 cells; experiment: 22Rv1 / anti-FITC CAR T co-culture, 48 hours; assay type: cell-based
Description: The number of 22Rv1 cells was counted at the end of the co-culture. The cytotoxicity of anti-FITC CAR T cells was calculated using the formula: (number of untreated 22Rv1 cells−number of treated 22Rv1 cells)/number of untreated 22Rv1 cells*100%. Concentrations of IFNγ in the co-culture medium were analyzed by ELISA using human IFNγ ELISA kit (Biolegend).

[6] = target: T1, PSMA; experiment: SurfaceTag on-cell binding to PSMA+ MDA-MB-231 tumor cells
Description: PSMAL1-PEG6-FITC strongly localizes on the surface of PSMA-positive tumor cells. To characterize the on-cell binding affinity of PSMAL1-PEG6-FITC to PSMA-expressing tumor cells, different concentrations of PSMAL1-PEG6-FITC were incubated with […] tumor cells that either over-expressed PSMA (PSMA^+) or were wildtype (PSMA−). Levels of surface fluorescein antigen on MDA-MB-321 tumor cells were detected using an anti-fluorescein antibody (FIG. 44A).

[7] = system: 22Rv1 cells; experiment: Retention in 22Rv1 cells in vitro; assay type: cell-based; conditions: 1 μM one hour, washed, 37 C
Description: (§2) Unbound compounds were washed away, and the cells were cultured in RPMI containing 10% FBS at 37° C. with 5% CO2. At indicated time points, the cells were imaged under a confocal microscope to analyze the intensity and location of FITC. […] To analyze the surface-bound FITC, the cells were stained with APC-anti-FITC antibody for 30 minutes on ice at different time points. The fluorescence intensity of APC was analyzed by flow cytometer.

[8] = system: MDA-PSMA cells; experiment: Retention in MDA-PSMA cells in vitro (confocal, flow cytometry); assay type: cell-based; conditions: 1 μM one hour, washed, 37 C
Description: as §2

[9] = system: TagCAR (universal anti-fluorescein CAR); experiment: Competition assay against FL-AF647 on TagCAR T cells; assay type: binding; conditions: Ki=IC50/(1+[S]/Km), [FL-AF647]=100 nM, triplicates from different donors; read-out: mean calculated inhibitor constant (Ki)
Description: PSMAL1-PEG6-FITC strongly binds to TagCAR T cells generated using TagCAR lentiviral particles. […] Due to fluorescein fluorescence being quenched when bound by TagCAR, TagCAR T cells were instead incubated with saturating levels of FL-AF647, which was then competed off by increasing concentrations of PSMAL1-PEG6-FITC. As compared to the antigen-only control sodium fluorescein (NaFL), lower concentrations of PSMAL1-PEG6-FITC were necessary to compete with FL-AF647, as detected by the mean fluorescent intensity (MFI) of FL-AF647.

[10] = system: MDA-MB-231-PSMA tumor cells; experiment: Total and surface retention of adapters on MDA-PSMA tumor cells in vivo (flow cytometry)
Description: as §3

[11] = system: MDA-MB-231-PSMA tumors; experiment: Fluorescent imaging of MDA-PSMA tumor bearing mice; assay type: in vivo; conditions: 500 nmol/kg intravenously
Excerpt: MDA-PSMA tumor bearing mice were intravenously injected with the indicated adapters at 500 nmol/kg. Fluorescent images of the mice were taken in the Spectral Ami imaging system at the indicated time points after injection.

[12] = system: PSMA+ MDA-MB-231 tumor cells; experiment: TagCAR T cell coculture with PSMA-overexpressing MDA-MB-231 tumor cells; assay type: cell-based
Description: PSMAL1-PEG6-FITC elicits dose-dependent TagCAR T cell function in vitro. The efficacy of TagCAR T cells generated as described in Example 42 mediated by PSMAL1-PEG6-FITC on PSMA-positive tumor cells was investigated in vitro. The normalized fold tumor cell growth of PSMA-overexpressing (PSMA^+) MDA-MB-231 tumor cells was measured every four hours during an 88-hour coculture of PSMA^+ MD-MB-231 tumor cells and different concentrations of PSMAL1-PEG6-FITC in the presence of TagCAR T cells generated as described in Example 42.
In addition, cytokine levels were measured in culture supernatants 24 hours following the addition of TagCAR T cells generated as described in Example 42 and different concentrations of PSMAL1-PEG6-FITC to PSMA MD-MB-231 tumor cells.
The presence of TagCAR+ cells (FIG. 45C) and presence of CD25+(FIG. 45D) in CD3+ T cells were also measured after 88 hours of coculture with PSMA^+ MDA-MB-231 tumor cells with different concentrations of PSMAL1-PEG6-FITC. CD3+ T cells with TagCAR had higher percentages of CD25+ as compared to CD3+ T cells without TagCAR.

T1 sequence (Q04609 whole entry): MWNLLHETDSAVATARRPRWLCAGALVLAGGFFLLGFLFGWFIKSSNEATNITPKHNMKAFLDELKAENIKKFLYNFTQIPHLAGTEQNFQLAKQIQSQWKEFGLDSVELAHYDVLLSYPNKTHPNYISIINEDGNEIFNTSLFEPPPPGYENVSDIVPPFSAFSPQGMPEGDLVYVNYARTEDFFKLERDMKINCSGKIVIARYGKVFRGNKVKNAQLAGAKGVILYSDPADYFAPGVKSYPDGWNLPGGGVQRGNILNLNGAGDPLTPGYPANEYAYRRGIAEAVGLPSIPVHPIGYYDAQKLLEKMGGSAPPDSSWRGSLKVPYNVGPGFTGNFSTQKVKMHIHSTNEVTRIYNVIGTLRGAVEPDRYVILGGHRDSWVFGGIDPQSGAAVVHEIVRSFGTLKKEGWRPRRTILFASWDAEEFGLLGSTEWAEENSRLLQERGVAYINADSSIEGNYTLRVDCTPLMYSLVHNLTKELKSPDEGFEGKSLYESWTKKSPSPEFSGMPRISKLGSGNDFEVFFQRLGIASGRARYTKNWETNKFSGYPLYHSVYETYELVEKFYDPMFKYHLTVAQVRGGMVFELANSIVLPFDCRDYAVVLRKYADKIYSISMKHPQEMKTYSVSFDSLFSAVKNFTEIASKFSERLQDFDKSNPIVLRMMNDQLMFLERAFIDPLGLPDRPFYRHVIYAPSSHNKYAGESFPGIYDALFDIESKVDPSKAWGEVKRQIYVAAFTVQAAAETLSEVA

Structure (SMILES): CC(C)(C)OC(=O)CC[C@H](NC(=O)N[C@@H](CCC(=O)OCc1ccccc1)C(=O)OC(C)(C)C)C(=O)OC(C)(C)C (stereo in doubt) [DUPA-PEG6-FITC, 2-[3-(3-Benzyloxycarbonyl-1-tert-butoxycarbonyl-propyl)-ureido]pentanedioic Acid Di tert-butyl Ester]
tumor cells that retained adapter on the surface [1]: 9%
tumor cells that still had adapter in the cells (total FITC) [1]: 13%
eradication of MDA-PSMA tumors [2]: good efficacy on eliminating MDA-PSMA tumors
body weight loss ([2]; mouse, in vivo): no body weight loss was observed
growth of 22Rv1 tumor [3]: didn't show much efficacy

binding affinity relative to DUPA-PEG6-FITC [4]: five-fold higher
Bmax (total antigen amount) ([6]; PSMA+ tumor cells): 2.6×10^6 MFI
Kd ([6]; PSMA+ tumor cells, anti-fluorescein antibody, read-out: Kd (on-cell binding affinity)): 1.29 nM
Structure (SMILES): O=C(O)CC[C@H](NC(=O)N[C@@H](CCCCNC(=O)[C@H](Cc1ccc2ccccc2c1)NC(=O)[C@H]1CC[C@H](CNC(=O)CCOCCOCCOCCOCCOCCOCCNC(=S)Nc2ccc(-c3c4ccc(=O)cc-4oc4cc(O)ccc34)c(C(=O)O)c2)CC1)C(=O)O)C(=O)O [PSMAL1-PEG6-FITC]
binding affinity and total binding (MFI of FITC) ([4]; 1 hour room temperature): Higher Binding Affinity and Higher Total Binding than DUPA-PEG6-FITC
lysis of 22Rv1 cells by anti-FITC CAR-T cells ([5]; low concentration): much higher than DUPA-PEG6-FITC at low concentration
IFNγ secreted by anti-FITC CAR-T cells ([5]; low concentrations): higher than DUPA-PEG6-FITC at low concentrations
eradication of MDA-PSMA tumors [2]: good efficacy on eliminating MDA-PSMA tumors
body weight loss ([2]; during treatment): no body weight loss was observed
localization on surface of PSMA-expressing tumor cells ([6]; PSMA+ vs PSMA- cells): specifically localized on the surface of PSMA-expressing tumors
retention in 22Rv1 cells (flow cytometry) [7]: stayed longer in 22Rv1 cells
growth of 22Rv1 tumor [3]: inhibited the growth of 22Rv1 tumor significantly
retention in MDA-MB-231-PSMA cells (confocal images) [8]: stayed longer in MDA-MB-231-PSMA cells than DUPA-PEG6-FITC
retention in MDA-PSMA cells expressing different levels of PSMA (flow cytometry) [8]: stayed longer in MDA-PSMA cells expressing different levels of PSMA than DUPA-PEG6-FITC
Ki [9]: 9.9 nM
tumor cells that retained adapter on the surface ([10]; 48 hours post-injection): 65%
tumor cells that still had adapter in the cells (total FITC) ([10]; 48 hours post-injection): 77%
tumor cells that retained adapter (total FITC) ([10]; 144 hours post-injection): 45%
tumor cells that retained adapter on the surface ([10]; 144 hours post-injection): 34%
retention in MDA-MB-231-PSMA tumors (fluorescent images) [11]: Better Retention in MDA-MB-231-PSM4 Tumors than DUPA-PEG6-FITC and DUPA-FITC
normalized fold tumor cell growth ([12]; 88-hour coculture with TagCAR T cells): tumor size decreased
IFNg and IL-2 levels in culture supernatants ([12]; 24 hours): increased with increasing doses
